Laboratory results taken from paper PMC7689791 (Journal of Clinical Pharmacology, 2020).
Several values for one entry are separate records, joined by “and”; a condition that tells them apart may be missing. Identical values can stand only once. Like-named read-outs stand apart in the source and are kept apart here.

Columns and labels:
[1] = Observed incidence of treatment-emergent adverse events in clinical studies
[2] = study 201, 15-day treatment, cited from earlier work
[3] = cited from earlier work
[4] = Model-predicted / simulated lemborexant exposure across covariates; design: species or system human
[5] = cited from earlier work; remark: listed apart in the source
[6] = Population PK final model; assay type: in vivo, human
[7] = coadministration with famotidine; cited from earlier work
CYP3A = conditions: stand-alone DDI studies and PBPK modeling; cited from earlier work
[8] = Logistic regression exposure-response analysis of TEAE probability; conditions: for Headache TEAE probability / Influenza TEAE probability / Nasopharyngitis TEAE probability / Somnolence TEAE probability / Upper Respiratory Tract Infection TEAE probability / Urinary Tract Infection TEAE probability: person
[9] = studies 202, 303, 304, 5 to 15 mg
[10] = oral [14C]lemborexant, healthy subjects, ref study E2006-A001-007, NCT02046213
[11] = 5 mg, 5th quantile, Cav,ss 6.30 ng/mL
[12] = 5 mg, 25th quantile, Cav,ss 7.90 ng/mL
[13] = 5 mg, 50th quantile, Cav,ss 10.00 ng/mL
[14] = 5 mg, 75th quantile, Cav,ss 14.00 ng/mL
[15] = 5 mg, 95th quantile, Cav,ss 19.00 ng/mL
[16] = 10 mg, 5th quantile, Cav,ss 12.00 ng/mL
[17] = 10 mg, 25th quantile, Cav,ss 17.00 ng/mL
[18] = 10 mg, 50th quantile, Cav,ss 21.00 ng/mL
[19] = 10 mg, 75th quantile, Cav,ss 27.00 ng/mL
[20] = 10 mg, 95th quantile, Cav,ss 37.00 ng/mL

## Cc1ncc(OC[C@@]2(c3cccc(F)c3)C[C@H]2C(=O)Nc2ccc(F)cn2)c(C)n1 [Lemborexant]
[1]; 9-month SUNRISE 2 study
  Somnolence rate, treatment: 11%
[1]; [9]
  Nasopharyngitis frequency, active treatment: 8.6%
  Upper respiratory tract infection frequency, active treatment: 3.2%
  Urinary tract infection frequency, active treatment: 2.5%
[1]; study 202
  Somnolence rate, treatment: 6%
[2]; 1-mg group
  Somnolence frequency: 3.1%
[2]; 25-mg group
  Somnolence frequency: 22.0%
[3]
  calculated logP: 3.2
[4]; ALP 150 U/L, relative to population average
  Higher exposure for high ALP: 9%
[4]; BMI 15 kg/m^2, relative to typical subject with normal BMI
  Lower exposure for underweight: 25%
[4]; BMI 32 kg/m^2, relative to typical subject with normal BMI
  Higher exposure for class 1 obesity: 11%
[4]; high ALP
  Exposure elevation in high ALP subjects: 8%
[4]; high BMI
  Exposure elevation in obese subjects: up to 20%
[4]; model prediction
  Higher CL/F for ALP at the upper range of normal over the typical subject: 7%
[4]; model prediction, relative to population average / adult insomnia population
  Higher exposure in the elderly: 26%
[5]; [10]
  Fraction of the dose bioavailable: at least 87%
  Unchanged lemborexant in feces: 13.0%
  Unchanged lemborexant in urine: not detected
[5]; single ascending-dose study, ref study 001, NCT01463098
  Administered dose recovered as unchanged drug in urine: < 1%
[6]; 5 mg, 5th quantile of Cav,ss
  Cav,ss: 6.30 ng/mL
[6]; 5 mg, 25th quantile of Cav,ss
  Cav,ss: 7.90 ng/mL
[6]; 5 mg, 50th quantile of Cav,ss
  Cav,ss: 10.00 ng/mL
[6]; 5 mg, 75th quantile of Cav,ss
  Cav,ss: 14.00 ng/mL
[6]; 5 mg, 95th quantile of Cav,ss
  Cav,ss: 19.00 ng/mL
[6]; 10 mg, 5th quantile of Cav,ss
  Cav,ss: 12.00 ng/mL
[6]; 10 mg, 25th quantile of Cav,ss
  Cav,ss: 17.00 ng/mL
[6]; 10 mg, 50th quantile of Cav,ss
  Cav,ss: 21.00 ng/mL
[6]; 10 mg, 75th quantile of Cav,ss
  Cav,ss: 27.00 ng/mL
[6]; 10 mg, 95th quantile of Cav,ss
  Cav,ss: 37.00 ng/mL
[6]; bedtime once-daily dosing
  Accumulation ratio: 1.9
[6]; elderly (>65 years old) versus adults, univariate forward addition
  Effect size of age covariate on CL/F: 126%
[6]; elderly (≥65 years)
  Oral clearance lower in the elderly: 26%
[6]; final model estimate
  CL/F, elderly (categorical covariate factor): 0.739
  Interindividual variability CL/F: 48.1 %CV
  Interindividual variability Q3/F: 56.8 %CV
  Interindividual variability Q4/F: 46.5 %CV
  Interindividual variability V2/F: 142 %CV
  Interindividual variability V3/F: 82.0 %CV
  Interindividual variability V4/F: 41.4 %CV
  Q3/F: 32.1 L/h
  Q4/F: 31.0 L/h
  Residual variability, additive (TAD >3 h): 0.0189 ng/mL
  Residual variability, additive (TAD ≤3 h): 2.62 ng/mL
  Residual variability, proportional (TAD > 3 h): 14.3 % CV
  Residual variability, proportional (TAD ≤ 3 h): 32.9 % CV
  V2/F: 9.09 L
  V3/F: 278 L
  V4/F: 783 L
[6]; final model estimate, typical subject
  CL/F: 23 L/h and 22.7 L/h
[6]; final model, bootstrap median
  CL/F: 23.7 L/h
  CL/F, elderly (categorical covariate factor): 0.713
  Interindividual variability CL/F: 46.8 %CV
  Interindividual variability Q3/F: 42.6 %CV
  Interindividual variability Q4/F: 52.0 %CV
  Interindividual variability V2/F: 131 %CV
  Interindividual variability V3/F: 66.1 %CV
  Interindividual variability V4/F: 38.3 %CV
  Q3/F: 33.0 L/h
  Q4/F: 30.1 L/h
  Residual variability, additive (TAD >3 h): 0.0203 ng/mL
  Residual variability, additive (TAD ≤3 h): 2.46 ng/mL
  Residual variability, proportional (TAD > 3 h): 14.3 % CV
  Residual variability, proportional (TAD ≤ 3 h): 33.2 % CV
  V2/F: 11.4 L
  V3/F: 289 L
  V4/F: 779 L
[6]; final model, fixed
  ALAG1: 0.403 h
  D1, capsule: 0.467 h
  D1, nighttime dosing (covariate factor): 2.33
  D1, tablet (covariate factor): 0.254
  F1, food (covariate factor): 1.21
  Interindividual variability D1: 167 %CV
  Interindividual variability F1: 68.1 %CV
  Interindividual variability Ka: 43.8 %CV
  Ka, capsule: 0.532 h⁻¹
  Ka, food (covariate factor): 0.695
  Ka, tablet (covariate factor): 1.12
[6]; from microrate constants
  Contribution of beta half-life to total dispositional AUC: 0.2%
  Contribution of gamma half-life to total dispositional AUC: 0.4%
  Fraction of alpha disposition phase of total disposition AUC: 99.4%
[7]
  Decrease in lemborexant Cmax: 27%
  Delay in the median tmax: 30 min
  Effect on lemborexant AUC0-t and AUC0-inf: no significant effect
CYP3A
  Interaction with moderate and strong CYP3A inhibitors: clinically meaningful interaction
[8]; [11]
  Headache TEAE probability: 11.0 (7.8‐14.0)
  Influenza TEAE probability: 3.8 (2.3‐6.2)
  Nasopharyngitis TEAE probability: 10.0 (7.5‐14.0)
  Somnolence TEAE probability: 7.2 (5.3‐9.7)
  Upper Respiratory Tract Infection TEAE probability: 4.7 (2.9‐7.3)
  Urinary Tract Infection TEAE probability: 2.0 (1.2‐3.5)
[8]; [12]
  Headache TEAE probability: 9.8 (7.6‐13.0)
  Influenza TEAE probability: 3.6 (2.3‐5.5)
  Nasopharyngitis TEAE probability: 9.5 (7.3‐12.0)
  Somnolence TEAE probability: 7.4 (5.7‐9.7)
  Upper Respiratory Tract Infection TEAE probability: 4.4 (2.9‐6.4)
  Urinary Tract Infection TEAE probability: 2.1 (1.3‐3.5)
[8]; [13]
  Headache TEAE probability: 9.2 (7.3‐11.0)
  Influenza TEAE probability: 3.4 (2.3‐4.9)
  Nasopharyngitis TEAE probability: 8.9 (7.1‐11.0)
  Somnolence TEAE probability: 7.7 (6.1‐9.7)
  Upper Respiratory Tract Infection TEAE probability: 4.1 (2.9‐5.7)
  Urinary Tract Infection TEAE probability: 2.3 (1.4‐3.5)
[8]; [14]
  Headache TEAE probability: 8.3 (6.8‐10.0)
  Influenza TEAE probability: 3.1 (2.2‐4.3)
  Nasopharyngitis TEAE probability: 8.1 (6.6‐9.8)
  Somnolence TEAE probability: 8.1 (6.6‐9.9)
  Upper Respiratory Tract Infection TEAE probability: 3.6 (2.7‐4.9)
  Urinary Tract Infection TEAE probability: 2.5 (1.7‐3.6)
[8]; [15]
  Headache TEAE probability: 6.8 (5.3‐8.6)
  Influenza TEAE probability: 2.6 (1.8‐3.9)
  Nasopharyngitis TEAE probability: 6.7 (5.2‐8.6)
  Somnolence TEAE probability: 8.9 (7.3‐11.0)
  Upper Respiratory Tract Infection TEAE probability: 3.0 (2.0‐4.3)
  Urinary Tract Infection TEAE probability: 2.9 (2.0‐4.1)
[8]; [16]
  Headache TEAE probability: 9.2 (7.4‐12.0)
  Influenza TEAE probability: 3.4 (2.3‐4.9)
  Nasopharyngitis TEAE probability: 8.9 (7.1‐11.0)
  Somnolence TEAE probability: 7.7 (6.0‐9.7)
  Upper Respiratory Tract Infection TEAE probability: 4.1 (2.9‐5.7)
  Urinary Tract Infection TEAE probability: 2.2 (1.4‐3.5)
[8]; [17]
  Headache TEAE probability: 7.7 (6.3‐9.4)
  Influenza TEAE probability: 2.9 (2.1‐4.1)
  Nasopharyngitis TEAE probability: 7.6 (6.2‐9.3)
  Somnolence TEAE probability: 8.4 (6.9‐10.0)
  Upper Respiratory Tract Infection TEAE probability: 3.4 (2.5‐4.6)
  Urinary Tract Infection TEAE probability: 2.6 (1.8‐3.7)
[8]; [18]
  Headache TEAE probability: 6.8 (5.3‐8.6)
  Influenza TEAE probability: 2.6 (1.8‐3.9)
  Nasopharyngitis TEAE probability: 6.7 (5.2‐8.6)
  Somnolence TEAE probability: 8.9 (7.3‐11.0)
  Upper Respiratory Tract Infection TEAE probability: 3.0 (2.0‐4.3)
  Urinary Tract Infection TEAE probability: 2.9 (2.0‐4.0)
[8]; [19]
  Headache TEAE probability: 5.7 (4.0‐8.1)
  Influenza TEAE probability: 2.3 (1.3‐4.0)
  Nasopharyngitis TEAE probability: 5.8 (4.0‐8.1)
  Somnolence TEAE probability: 9.6 (7.6‐12.0)
  Upper Respiratory Tract Infection TEAE probability: 2.5 (1.5‐4.3)
  Urinary Tract Infection TEAE probability: 3.3 (2.2‐4.9)
[8]; [20]
  Headache TEAE probability: 3.9 (2.0‐7.4)
  Influenza TEAE probability: 1.7 (0.6‐4.7)
  Nasopharyngitis TEAE probability: 4.0 (2.1‐7.7)
  Somnolence TEAE probability: 11.0 (7.5‐17.0)
  Upper Respiratory Tract Infection TEAE probability: 1.7 (0.6‐4.6)
  Urinary Tract Infection TEAE probability: 4.4 (2.2‐8.7)
[8]; with and without adjustment for age
  Cav,ss as linear predictor of the probability of specific TEAEs (somnolence, nasopharyngitis, flu/influenza, urinary tract infection, upper respiratory tract infection, headache): not a clinically meaningful linear predictor
